Reference: PMC6364417, “Kinase inhibitor library screening identifies synergistic drug combinations effective in sensitive and resistant melanoma cells” (Journal of Experimental & Clinical Cancer Research : CR, 2019)

What was measured:
Assay in all cases: Kinase inhibitor library screening, PrestoBlue cell viability, 1 or 10 μM, 72 h
501Mel cells (parental) = details: 501Mel Parental, in %; for Cell viability in kinase inhibitor library screening, 501Mel Parental, 1μΜ / Cell viability in kinase inhibitor library screening, 501Mel Parental, 10μΜ: 72 h
Protocol: (§1) After 72 h of treatment, cell viability was assessed using the PrestoBlue Cell Viability Reagent (ThermoFisher Scientific). Measurements were performed with the CLARIOstar Monochromator microplate reader (BMG Labtech).
(§2) Kinase inhibitor library screening. […] Each cell line was treated in its sensitive form (parental), and also as 2 resistant derivatives, which were made resistant to either Vemurafenib (XP) or Dabrafenib (GP). Drugs were added at 2 different concentrations, 1 and 10 μM, for 72 h and cell viability was assessed using the PrestoBlue Cell Viability assay. Results are depicted as % viability compared to untreated cells. Each cell line was analyzed at least in duplicate. […] (XLSX 95 kb)

[1] = tested on: 501Mel-GP cells (Dabrafenib-resistant); details: 501Mel GP, in %; for Cell viability in kinase inhibitor library screening, 501Mel GP, 1μΜ / Cell viability in kinase inhibitor library screening, 501Mel GP, 10μΜ / cell viability, 501Mel GP, 1μΜ / cell viability, 501Mel GP, 10μΜ: 72 h
Protocol: as §1, §2

[2] = tested on: 501Mel-XP cells (Vemurafenib-resistant); details: 501Mel XP, in %
Protocol: as §1, §2

A375 cells (parental) = details: A375 Parental
Protocol: as §1, §2

[3] = tested on: A375-GP cells (Dabrafenib-resistant); details: A375 GP
Protocol: as §1, §2

[4] = tested on: A375-XP cells (Vemurafenib-resistant); details: A375 XP
Protocol: as §1, §2

[5] = tested on: IGR37-GP cells (Dabrafenib-resistant); details: IGR37 GP
Protocol: as §1, §2

[6] = tested on: IGR37-XP cells (Vemurafenib-resistant); details: IGR37 XP; for Cell viability in kinase inhibitor library screening, IGR37 XP, 10μΜ / Cell viability in kinase inhibitor library screening, IGR37 XP, 1μΜ / cell viability, IGR37 XP, 10μΜ / cell viability, IGR37 XP, 1μΜ: 72 h; for Cell viability in kinase inhibitor library screening, IGR37 XP, 1μΜ / cell viability (kinase inhibitor library screening) / cell viability, IGR37 XP, 1μΜ: in %
Protocol: as §1, §2

IGR37 cells (parental) = details: IGR37 Parental, 72 h, in %
Protocol: as §1, §2

SMILES	Cell viability in kinase inhibitor library screening, 501Mel Parental, 1μΜ (501Mel cells (parental); 1μΜ)	Cell viability in kinase inhibitor library screening, 501Mel Parental, 10μΜ (501Mel cells (parental))	Cell viability in kinase inhibitor library screening, 501Mel GP, 1μΜ ([1]; 1μΜ)	Cell viability in kinase inhibitor library screening, 501Mel GP, 10μΜ ([1]; 10μΜ)	Cell viability in kinase inhibitor library screening, 501Mel XP, 1μΜ ([2]; 1μΜ, 72 h)	Cell viability in kinase inhibitor library screening, IGR37 GP, 10μΜ ([5]; 72 h) [%]	Cell viability in kinase inhibitor library screening, IGR37 XP, 10μΜ ([6]; 10μΜ) [%]	Cell viability in kinase inhibitor library screening, IGR37 XP, 1μΜ ([6]; 1μΜ)	cell viability, 501Mel GP, 1μΜ ([1]; 1μΜ)	cell viability, 501Mel GP, 10μΜ ([1]; 10μΜ)	cell viability, 501Mel XP, 1μΜ ([2]; 1μΜ, 72 h)	cell viability, 501Mel XP, 10μΜ ([2]; 10μΜ, 72 h)	cell viability, A375 Parental, 10μΜ (A375 cells (parental); 10μΜ, 72 h, in %)	cell viability, A375 GP, 1μΜ ([3]; 1μΜ, 72 h, in %)	cell viability, A375 XP, 1μΜ ([4]; 1μΜ, 72 h, in %)	cell viability, IGR37 Parental, 10μΜ (IGR37 cells (parental); 10μΜ)	cell viability, IGR37 GP, 10μΜ ([5]; 72 h) [%]	cell viability, IGR37 GP, 1μΜ ([5]; 1μΜ, 72 h, in %)	cell viability, IGR37 XP, 10μΜ ([6]; 10μΜ) [%]	cell viability, IGR37 XP, 1μΜ ([6]; 1μΜ)	other results
O=c1c(O)c(-c2ccc(O)c(O)c2)oc2cc(O)cc(O)c12 [Quercetin (Sophoretin)]	99.7	94.0	98.5	87.4	90.4	78.8	58.7	99.1													Cell viability in kinase inhibitor library screening, 501Mel XP, 10μΜ ([2]; 10μΜ, 72 h): 65.0; Cell viability in kinase inhibitor library screening, A375 Parental, 10μΜ (A375 cells (parental); 10μΜ, 72 h): 94.2; Cell viability in kinase inhibitor library screening, A375 Parental, 1μΜ (A375 cells (parental); 1μΜ, 72 h): 97.7; Cell viability in kinase inhibitor library screening, A375 GP, 10μΜ ([3]; 10μΜ, 72 h): 87.9; Cell viability in kinase inhibitor library screening, A375 XP, 10μΜ ([4]; 10μΜ, 72 h): 96.9
Cc1[nH]c(/C=C2\C(=O)Nc3ccccc32)c(C)c1CCC(=O)O [TSU-68]																					cell viability (kinase inhibitor library screening) (501Mel cells (parental); 1μΜ): 103.3; cell viability (kinase inhibitor library screening) ([1]; 1μΜ): 108.8; cell viability (kinase inhibitor library screening) ([1]; 10μΜ): 99.1; cell viability (kinase inhibitor library screening) ([2]; 1μΜ): 99.9; cell viability (kinase inhibitor library screening) ([2]; 10μΜ): 80.9; cell viability (kinase inhibitor library screening) (A375 cells (parental); 1μΜ, in %): 114.1; cell viability (kinase inhibitor library screening) (A375 cells (parental); 10μΜ, in %): 107.4; cell viability (kinase inhibitor library screening) ([3]; 1μΜ, in %): 113.8; cell viability (kinase inhibitor library screening) ([3]; 10μΜ, in %): 94.6; cell viability (kinase inhibitor library screening) ([4]; 1μΜ, in %): 108.6; cell viability (kinase inhibitor library screening) ([4]; 10μΜ, in %): 103.8; cell viability (kinase inhibitor library screening) ([5]; 1μΜ, in %): 97.4; cell viability (kinase inhibitor library screening) ([6]; 1μΜ): 95.2; cell viability (kinase inhibitor library screening) ([6]; 10μΜ): 76.8
C[C@@H]1CCN(C(=O)CC#N)C[C@@H]1N(C)c1ncnc2[nH]ccc12 [Tofacitinib (CP-690550, Tasocitinib)]									104.8	94.8	94.3	92.6	97.3	103.9	103.8	104.5	95.3	97.9	71.2	96.7	cell viability, A375 Parental, 1μΜ (A375 cells (parental); 1μΜ, 72 h, in %): 104.5; cell viability, A375 GP, 10μΜ ([3]; 10μΜ, 72 h, in %): 97.7; cell viability, A375 XP, 10μΜ ([4]; 10μΜ, 72 h, in %): 103.6; cell viability, IGR37 Parental, 1μΜ (IGR37 cells (parental); 1μΜ): 108.6
C[C@@H]1CCN(C(=O)CC#N)C[C@@H]1N(C)c1ncnc2[nH]ccc12.O=C(O)CC(O)(CC(=O)O)C(=O)O [Tofacitinib citrate (CP-690550 citrate)]									103.5	93.7	94.0	90.7	93.7	103.6	103.3	107.1	94.9	98.3	83.2	104.3	
O=C(O)c1ccc2c(c1)nc(Nc1cccc(Cl)c1)c1ccncc12 [cx-4945 (Silmitasertib)]	96.6	52.6	93.9	31.8	88.6	55.9	23.6	96.8													Cell viability in kinase inhibitor library screening, A375 GP, 1μΜ ([3]; 1μΜ, 72 h): 93.2; Cell viability in kinase inhibitor library screening, IGR37 Parental, 10μΜ (IGR37 cells (parental); 10μΜ): 86.7; Cell viability in kinase inhibitor library screening, IGR37 GP, 1μΜ ([5]; 1μΜ, 72 h, in %): 94.1
